Experimental data from patent US20250382556A1, “MODULATION OF THE BRANCHED-CHAIN METABOLITE CONTENT OF FRUITS AND VEGETABLES” (BOARD OF TRUSTEES OF MICHIGAN STATE UNIVERSITY, priority 2024, published 2025).

How the values were obtained:
[1] = tested on: ripe ‘Red Delicious’ apple fruit; assay: Precursor (isoleucine, α-ketoacid) content of ripe apple peel via derivatization and GCMS, time course; assay type: in vivo, Malus x domestica Borkh.; conditions: 1 mM rimsulfuron
Method: (§1) ‘Red Delicious’ apple fruit held in refrigerated air for 5 months (see above) plus 1 day at 22° C. and at an advanced ripeness stage (‘ripe’) were treated with rimsulfuron (1 mM) with 0.2% Tween 20 on day 0 of the study and for the next three consecutive days as above described. The fruit were evaluated daily for volatile emissions (see below) for eight days. On days 0, 2, 4, and 7, representative treated and untreated fruit were selected for tissue collection for metabolite analysis (see below). On day 7, samples of fruit peel were fed, as described above, with water or 20 mM isoleucine or α-keto-β-methylvalerate.
To simultaneously quantify branched-chain α-ketoacids and amino acids, 100 mg of ground frozen tissue was extracted in 2 mL of 1:1 acetonitrile: water containing 13 μM U-^13C, ^15N labeled amino acids (MilliporeSigma) as internal standard for 15 min in a 65° C. water bath. […]
One microliter of derivatized sample was analyzed with a GC (Agilent 6890) coupled to a time-of-flight MS (Pegasus II, LECO). […]
Compounds were identified by retention time and spectra of derivatized authenticated standards. Quantification was performed by comparison of the ratios of peak areas of metabolites to labeled internal standards. […] Calibration standards consisted of equimolar mixtures of the analyzed compounds that mimicked 15-0.15 nmoles of analyte in the final derivatized sample. […]

[2] = tested on: apple fruit peel; assay: Complementation of inhibitor-treated apple peel with branched-chain precursors; set-up: species or system Malus x domestica Borkh.
Method: α-Ketoacids (2-oxo acids) were fed to ‘Empire’ and ‘Jonagold’ fruit by preparing vials of excised peel tissue discs in 22-mL glass vials using 20 μL of treatment solution on the prepared paper-peel disc units. Treatment solution contained 20 mM methanol, 0.1% Tween 20, 20 mM of α-keto-β-methylvalerate (3-methyl-2-oxopentanoate), α-ketoisovalerate (3-methyl-2-oxobutanoate), or α-ketoisocaproate (4-methyl-2-oxopentanoate), and when appropriate, 1 mM rimsulfuron.
as §1
Headspace volatiles from small tissue samples incubated in 22 mL vials were adsorbed for 30 s using a solid-phase micro extraction (SPME) fiber (65 μm PDMS-DVB; Supelco Analytical). […]

In the case of CCS(=O)(=O)c1cccnc1S(=O)(=O)NC(=O)Nc1nc(OC)cc(OC)n1 [rimsulfuron, N-((4,6-dimethoxypyrimidin-2-yl)aminocarbonyl)-3-(ethylsulfonyl)-2-pyridinesulfonamide], the “isoleucine content, plateau, of control levels” value [1] is reported as 29.1%, the “α-keto-β-methylvalerate content, plateau, of control levels” value [1] is reported as 51.1% and the “ester production after feeding isoleucine or α-keto-β-methylvalerate to inhibitor-treated peels” value ([2]; ripe Red Delicious, 20 mM precursor on day 7) is reported as “recovery of anteiso-branched-chain esters”. For the same compound, the “2-methylbutyl and 2-methylbutanoate esters after exogenous feeding of α-keto-β-methylvalerate to inhibitor-treated fruit” value ([2]; ripening Jonagold and Empire, 20 mM α-ketoacid) was “at least a partial rescue”.
